Test [1] relates to Escherichia coli. In words: Antimicrobial activity against Escherichia coli UB1005 after 24 hrs by twofold serial microbroth dilution assay. The conditions noted are these: UB1005, 24 h. Background: In broth dilution the organism is exposed to a series of concentrations in liquid medium.
Test [2] deals with Escherichia coli. Nature of the test: Antimicrobial activity against Escherichia coli DC2 after 24 hrs by twofold serial microbroth dilution assay. The class given is functional.
Test [3] has as its system Pseudomonas aeruginosa. In words: Antimicrobial activity against Pseudomonas aeruginosa K799 after 24 hrs by twofold serial microbroth dilution assay. The class given is functional.
Test [4] has as its system Pseudomonas aeruginosa. Nature of the test: Antimicrobial activity against Pseudomonas aeruginosa Z61 after 24 hrs by twofold serial microbroth dilution assay. The class given is functional.
For test [5], the system named is Bacillus subtilis. Nature of the test: Antimicrobial activity against Bacillus subtilis Vernon after 24 hrs by twofold serial microbroth dilution assay. The class given is functional.
Test [6] deals with Candida albicans. Nature of the test: Antimicrobial activity against Candida albicans CAND105 after 48 hrs by twofold serial microbroth dilution assay. The class given is functional.
Test [7] concerns Candida albicans. Nature of the test: Antimicrobial activity against Candida albicans after 48 hrs by twofold serial microbroth dilution assay. The class given is functional.
The subject of test [8] is Yarrowia lipolytica. Nature of the test: Antimicrobial activity against Candida lipolytica after 48 hrs by twofold serial microbroth dilution assay. The class given is functional.
The test system of test [9] is Saccharomyces cerevisiae. Nature of the test: Antimicrobial activity against Saccharomyces cerevisiae after 48 hrs by twofold serial microbroth dilution assay. The class given is functional.
Test [10] has as its system Nannizzia gypsea. Nature of the test: Antimicrobial activity against Microsporum gypseum after 48 hrs by twofold serial microbroth dilution assay. The class given is functional.
Test [11] deals with Fusarium tricinctum. In words: Antimicrobial activity against Fusarium tricinctum after 48 hrs by twofold serial microbroth dilution assay. The class given is functional.
Test [12] concerns Aspergillus flavus. Nature of the test: Antimicrobial activity against Aspergillus flavus after 48 hrs by twofold serial microbroth dilution assay. The class given is functional.
The test system of test [13] is Aspergillus fumigatus. Nature of the test: Antimicrobial activity against Aspergillus fumigatus after 48 hrs by twofold serial microbroth dilution assay. The class given is functional.
Test [14] deals with Human alphaherpesvirus 1. In words: Antiviral activity against Herpes simplex virus 1 assessed as effect on virus-induced cytopathic effect at 200 ug/ml after 3 days. The class given is functional, organism-based.
The test system of test [15] is Respiratory syncytial virus. Nature of the test: Antiviral activity against Respiratory syncytial virus assessed as effect on virus-induced cytopathic effect at 200 ug/ml after 3 days. The class given is functional, organism-based.
The subject of test [16] is Mycobacterium tuberculosis. Nature of the test: Antimicrobial activity against Mycobacterium tuberculosis 107 ATCC 35801 at 100 ug/disk after 4 weeks by disk diffusion method. The class given is functional, organism-based. For orientation: Agar diffusion results depend on both activity and mobility in agar.
For test [17], the system named is Mycobacterium avium. Nature of the test: Antimicrobial activity against Mycobacterium avium 724 ATCC 25291 at 100 ug/disk after 2 weeks by disk diffusion method. The class given is functional, organism-based.
The subject of test [18] is Staphylococcus aureus. Nature of the test: Antimicrobial activity against Staphylococcus aureus SAP00017 after 24 hrs by twofold serial microbroth dilution assay. The class given is functional.
Test [19] deals with Staphylococcus aureus. Nature of the test: Antimicrobial activity against Staphylococcus aureus RN4220 after 24 hrs by twofold serial microbroth dilution assay. The class given is functional.
Test [20] has as its system Escherichia coli. In words: Antimicrobial activity against Escherichia coli UB1005 at <=800 ug/ml after 24 hrs by twofold serial microbroth dilution assay. The class given is functional, organism-based.
Test [21] deals with Escherichia coli. Nature of the test: Antimicrobial activity against Escherichia coli DC2 at <=800 ug/ml after 24 hrs by twofold serial microbroth dilution assay. The class given is functional, organism-based.
Test [22] relates to Pseudomonas aeruginosa. In words: Antimicrobial activity against Pseudomonas aeruginosa K799 at <=800 ug/ml after 24 hrs by twofold serial microbroth dilution assay. The class given is functional, organism-based.
Test [23] relates to Pseudomonas aeruginosa. In words: Antimicrobial activity against Pseudomonas aeruginosa Z61 at <=800 ug/ml after 24 hrs by twofold serial microbroth dilution assay. The class given is functional, organism-based.
Test [24] has as its system Staphylococcus aureus. Nature of the test: Antimicrobial activity against Staphylococcus aureus SAP00017 at <=800 ug/ml after 24 hrs by twofold serial microbroth dilution assay. The class given is functional, organism-based.
Test [25] deals with Staphylococcus aureus. In words: Antimicrobial activity against Staphylococcus aureus RN4220 at <=800 ug/ml after 24 hrs by twofold serial microbroth dilution assay. The class given is functional, organism-based.
The subject of test [26] is Bacillus subtilis. In words: Antimicrobial activity against Bacillus subtilis Vernon at <=800 ug/ml after 24 hrs by twofold serial microbroth dilution assay. The class given is functional, organism-based.
The subject of test [27] is Candida albicans. Nature of the test: Antimicrobial activity against Candida albicans CAND105 at <=800 ug/ml after 48 hrs by twofold serial microbroth dilution assay. The class given is functional, organism-based.

In brackets after ≈: the same amount, converted by molar mass. Activity calls are given as the source filed them. No cut-off for these calls is given here.

As a reminder, the MIC is the least concentration at which growth counts as inhibited. A lower MIC goes with greater potency.

On to `CC1=CC(=O)c2ccc(C)cc2C1=O` [CHIMAPHILIN], for which the MIC in test [1] is over 800 µg/mL; in [2], over 800 µg/mL; in test [3], over 800 µg/mL; in [4], over 800 µg/mL; in test [5], 50 µg/mL (≈ 269 µM); in test [6], 400 µg/mL (≈ 2150 µM). Moreover, the MIC came to 50 µg/mL (≈ 269 µM) in [7]; 50 µg/mL (≈ 269 µM) in test [8]; 50 µg/mL (≈ 269 µM) in [9]; 6.2 µg/mL (≈ 33.3 µM) in test [10]; 12.5 µg/mL (≈ 67.1 µM) in [11]; 25 µg/mL (≈ 134 µM) in test [12]. In addition, the MIC stood at 50 µg/mL (≈ 269 µM) in [13]; 25 µg/mL (≈ 134 µM) in test [18]; 25 µg/mL (≈ 134 µM) in test [19] (RN4220, 24 h). The outcome in test [14], in [15], in [16] and in test [17] was inactive.

For the compound `COc1cccc(OC)c1C(=O)N[C@@H]1C(=O)N2[C@@H]1SC(C)(C)[C@@H]2C(=O)O` [METHICILLIN], the MIC is over 512 µg/mL in [1]; under 4 µg/mL in test [2]; 256 µg/mL (≈ 673 µM) in test [3]; under 4 µg/mL in test [4]; 128 µg/mL (≈ 336 µM) in test [5]; over 512 µg/mL in test [6]. For the same compound, the MIC in test [18] was 256 µg/mL (≈ 673 µM); in test [19] (RN4220, 24 h), under 4 µg/mL.

`COc1ccc2c(OC(C)=O)cc(OC)c(OC(C)=O)c2c1OC(C)=O`: the result in [20], in test [21], in test [22], in test [23], in test [24] and in test [25] was inactive. The outcome in test [26] and in test [27] was inactive.

On to `CC1=C(O)C(=O)c2ccc(C)cc2C1=O`, for which the MIC was over 800 µg/mL in test [1]; over 800 µg/mL in test [2]; over 800 µg/mL in test [3]; over 800 µg/mL in [4]; 800 µg/mL (≈ 3960 µM) in test [5]; 80 µg/mL (≈ 396 µM) in [6]. Besides, the MIC was 50 µg/mL (≈ 247 µM) in test [7]; 25 µg/mL (≈ 124 µM) in [8]; over 100 µg/mL in [9]; 12.5 µg/mL (≈ 61.8 µM) in test [10]; 25 µg/mL (≈ 124 µM) in test [11]; 100 µg/mL (≈ 495 µM) in test [12]. Also, the MIC in test [13] worked out at 50 µg/mL (≈ 247 µM); in [18], 800 µg/mL (≈ 3960 µM); in test [19] (RN4220, 24 h), 400 µg/mL (≈ 1980 µM). Further, the outcome in test [14], in [15], in [16] and in test [17] was inactive.

NYSTATIN: the MIC was 10 µg/mL in [7]; over 10 µg/mL in [8]; 10 µg/mL in test [9]; 2.5 µg/mL in test [10]; 5 µg/mL in test [11]; over 10 µg/mL in test [12]. For the same compound, the MIC in [13] was determined as 5 µg/mL.

On to `CC1=CC(=O)c2ccc(C)c(Cl)c2C1=O`, for which the minimum inhibitory concentration (MIC) in test [1] is over 800 µg/mL; in [2], 800 µg/mL (≈ 3630 µM); in test [3], over 800 µg/mL; in test [4] it was 400 µg/mL (≈ 1810 µM); in test [5], 12.5 µg/mL (≈ 56.6 µM); in [6] it was 50 µg/mL (≈ 227 µM). For the same compound, the MIC in [7] worked out at 100 µg/mL (≈ 453 µM); in test [8], 50 µg/mL (≈ 227 µM); in test [9] it was 100 µg/mL (≈ 453 µM); in test [10] it was 3.1 µg/mL (≈ 14 µM); in [11] it was 12.5 µg/mL (≈ 56.6 µM); in test [12] it was 25 µg/mL (≈ 113 µM). Also, the MIC in [13] worked out at 25 µg/mL (≈ 113 µM); in [18] it was 25 µg/mL (≈ 113 µM); in [19] (RN4220, 24 h), 200 µg/mL (≈ 906 µM). Also, the result in test [14], in test [15], in test [16] and in test [17] was inactive.

On to `COc1ccc2c(O)cc(OC)c(O)c2c1O`, for which the outcome in [20], in [21], in test [22], in test [23], in test [24] and in test [25] was inactive. In addition, the result in test [26] and in [27] was inactive.

In the case of GENTAMICIN, the MIC in [2] is 1 µg/mL; in [3], 1 µg/mL; in [4], 0.3 µg/mL; in test [5], 16 µg/mL; in test [6] it was over 32 µg/mL; in [18], over 32 µg/mL. Also, in test [19], the MIC worked out at 0.3 µg/mL.

On to `CC(=O)Oc1c(C)c(OC(C)=O)c2cc(C)ccc2c1O[C@@H]1O[C@@H](C)[C@H](OC(C)=O)[C@@H](OC(C)=O)[C@H]1OC(C)=O`, for which the result in test [20], in test [21], in test [22], in test [23], in [24] and in test [25] was inactive. Besides, the outcome in test [26] and in test [27] was inactive.

In the case of `C[C@@H]1[C@H](O)[C@@H](C)/C=C/C=C/C=C/C=C/C=C/C=C/C=C/[C@H](O[C@@H]2O[C@H](C)[C@@H](O)[C@H](N)[C@@H]2O)C[C@@H]2O[C@](O)(C[C@@H](O)C[C@@H](O)[C@H](O)CC[C@@H](O)C[C@@H](O)CC(=O)O[C@H]1C)C[C@H](O)[C@H]2C(=O)O` [AMPHOTERICIN B], the MIC in test [1] was over 5 µg/mL; in test [2], over 5 µg/mL; in test [3], over 5 µg/mL; in test [4] it was over 5 µg/mL; in test [5], over 5 µg/mL; in test [6] it was 0.1 µg/mL (≈ 0.108 µM). Also, the MIC in test [18] was over 5 µg/mL; in test [19] (RN4220, 24 h), over 5 µg/mL.

For `Cc1ccc2c(O[C@@H]3O[C@@H](C)[C@H](O)[C@@H](O)[C@H]3O)c(O)c(C)c(O)c2c1`, the outcome in [20], in [21], in test [22], in test [23], in [24] and in test [25] was inactive. Further, the outcome in test [26] and in test [27] was inactive.

The record behind these values is ChEMBL document CHEMBL1151667, “Chlorochimaphilin: a new antibiotic from Moneses uniflora” (1996).
